# In patent US20260356804A1, “SODIUM CHANNEL BLOCKING COMPOUNDS, DERIVATIVES THEREOF, AND METHODS OF THEIR USE” (LATIGO BIOTHERAPEUTICS, INC., priority 2022, published 2026):
# Where two headings read alike, the source gives them in different places.
# Target: T1, human Nav1.8/b3 (Homo sapiens, UniProt Q9Y5Y9)
# T1 construct: expressed in transfected cells; host or cells: CHO
# Experiment: Compound Profiling Human NaV1.8/β3 Cell Line—SyncroPatch384PE Assay (automated patch clamp, stably transfected CHO cells)
# Type: cell-based
# Conditions: Nav1.8/b3 CHO cells
# [1] = P1 (IC50, resting state block), P1 measurement, resting state block, holding potential −120 mV, first set of compounds
# [2] = P2 (IC50, inactivated state block), P2 measurement, inactivated state block, inactivation step −35 mV 10 sec, first set of compounds
# [3] = P1 (IC50, resting state block), P1 measurement, resting state block, holding potential −120 mV, third set of compounds
# [4] = P2 (IC50, inactivated state block), P2 measurement, inactivated state block, inactivation step −35 mV 10 sec, third set of compounds
# [5] = P1 measurement, resting state block, holding potential −120 mV, third set of compounds, read-out: P1 (IC50, resting state block)
# [6] = P2 measurement, inactivated state block, inactivation step −35 mV 10 sec, third set of compounds, read-out: P2 (IC50, inactivated state block)
# T1 sequence (Q9Y5Y9 whole entry): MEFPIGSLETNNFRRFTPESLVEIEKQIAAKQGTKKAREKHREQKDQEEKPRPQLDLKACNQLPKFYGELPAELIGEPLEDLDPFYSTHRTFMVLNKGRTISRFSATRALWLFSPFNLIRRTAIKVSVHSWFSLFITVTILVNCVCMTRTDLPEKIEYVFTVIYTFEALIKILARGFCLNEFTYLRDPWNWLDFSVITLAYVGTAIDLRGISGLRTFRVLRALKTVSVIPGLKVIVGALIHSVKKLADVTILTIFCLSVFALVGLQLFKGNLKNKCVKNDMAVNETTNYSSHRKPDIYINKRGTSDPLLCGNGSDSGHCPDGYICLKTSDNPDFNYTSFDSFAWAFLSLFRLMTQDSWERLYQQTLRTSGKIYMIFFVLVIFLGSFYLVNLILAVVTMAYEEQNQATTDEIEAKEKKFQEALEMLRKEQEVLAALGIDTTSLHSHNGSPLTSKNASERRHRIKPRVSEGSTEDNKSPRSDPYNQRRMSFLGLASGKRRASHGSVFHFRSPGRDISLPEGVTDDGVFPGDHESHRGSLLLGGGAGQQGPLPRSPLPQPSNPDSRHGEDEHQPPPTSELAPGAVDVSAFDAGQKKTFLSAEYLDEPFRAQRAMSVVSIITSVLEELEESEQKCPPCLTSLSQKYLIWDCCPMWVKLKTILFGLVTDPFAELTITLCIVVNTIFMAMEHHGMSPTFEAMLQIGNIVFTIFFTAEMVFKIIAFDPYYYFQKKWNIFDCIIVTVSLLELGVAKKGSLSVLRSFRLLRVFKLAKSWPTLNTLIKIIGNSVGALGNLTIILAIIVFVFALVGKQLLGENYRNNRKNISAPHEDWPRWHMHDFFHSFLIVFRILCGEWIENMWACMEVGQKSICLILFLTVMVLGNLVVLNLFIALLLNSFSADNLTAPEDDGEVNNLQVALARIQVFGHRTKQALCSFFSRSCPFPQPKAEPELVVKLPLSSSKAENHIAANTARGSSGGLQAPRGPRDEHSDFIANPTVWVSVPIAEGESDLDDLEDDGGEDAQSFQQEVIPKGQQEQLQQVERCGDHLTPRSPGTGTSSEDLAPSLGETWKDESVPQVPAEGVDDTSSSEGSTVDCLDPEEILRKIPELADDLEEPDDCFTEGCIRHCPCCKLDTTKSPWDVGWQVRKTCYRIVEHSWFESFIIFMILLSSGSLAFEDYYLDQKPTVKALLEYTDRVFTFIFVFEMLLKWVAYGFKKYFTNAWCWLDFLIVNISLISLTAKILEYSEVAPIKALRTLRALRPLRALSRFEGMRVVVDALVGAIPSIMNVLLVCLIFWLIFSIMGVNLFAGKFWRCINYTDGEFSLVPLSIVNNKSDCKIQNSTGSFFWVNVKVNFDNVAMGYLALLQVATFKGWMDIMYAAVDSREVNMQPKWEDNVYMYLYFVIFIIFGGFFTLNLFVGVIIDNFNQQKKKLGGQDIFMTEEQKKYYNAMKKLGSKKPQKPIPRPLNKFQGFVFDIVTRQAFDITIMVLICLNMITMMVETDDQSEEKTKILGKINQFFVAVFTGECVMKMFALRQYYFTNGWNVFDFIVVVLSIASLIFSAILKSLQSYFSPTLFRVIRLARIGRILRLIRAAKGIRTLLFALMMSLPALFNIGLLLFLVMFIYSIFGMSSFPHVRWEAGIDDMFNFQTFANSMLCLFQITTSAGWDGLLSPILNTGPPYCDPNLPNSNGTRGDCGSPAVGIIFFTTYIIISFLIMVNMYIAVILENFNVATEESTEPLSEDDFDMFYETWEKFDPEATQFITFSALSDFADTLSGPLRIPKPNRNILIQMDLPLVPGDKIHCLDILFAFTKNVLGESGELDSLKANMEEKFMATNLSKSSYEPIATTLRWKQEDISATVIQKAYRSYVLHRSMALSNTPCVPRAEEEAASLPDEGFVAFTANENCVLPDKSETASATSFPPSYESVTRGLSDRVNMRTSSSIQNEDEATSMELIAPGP
# T1 sequence (Q9NY72 23-215 partner): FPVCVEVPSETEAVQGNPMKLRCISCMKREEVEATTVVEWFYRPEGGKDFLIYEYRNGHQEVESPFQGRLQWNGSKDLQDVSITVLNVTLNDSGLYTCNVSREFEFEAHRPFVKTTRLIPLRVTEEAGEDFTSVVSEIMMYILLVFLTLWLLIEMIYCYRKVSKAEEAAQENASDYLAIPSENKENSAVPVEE
IC50 [1] [nM],IC50 [2] [nM],SMILES,also measured
< 5,< 5,Cc1nc(F)ccc1Oc1cc(C(F)(F)F)c(Cl)c(F)c1C(=O)Nc1cccc([S@](C)(=N)=O)c1 [Example 43A],
50 to 100,50 to 100,Cc1nc(F)ccc1Oc1cc(C(F)(F)F)c(Cl)cc1C(=O)Nc1ccc([S@@](C)(=N)=O)cc1 [Example 48A],
50 to 100,50 to 100,Cc1nc(F)ccc1Oc1cc(C(F)(F)F)c(Cl)cc1C(=O)Nc1ccc([S@](C)(=N)=O)cc1 [Example 49A],
< 5,< 5,Cc1nc(F)ccc1Oc1cc(C2CC2)c(C(F)(F)F)cc1C(=O)Nc1ccc(F)c([S@](C)(=N)=O)c1 [Example 52A],
< 5,< 5,Cc1nc(F)ccc1Oc1cc(C(F)(F)F)c(Cl)cc1C(=O)Nc1ccc(F)c(S(C)(=O)=O)c1 [Example 54A],
< 5,< 5,Cc1nc(F)ccc1Oc1cc(C(F)(F)F)c(Cl)cc1C(=O)Nc1ccc(F)c([S@+](C)[O-])c1 [Example 55A],
< 5,< 5,Cc1nc(F)ccc1Oc1cc(C(F)(F)F)c(Cl)cc1C(=O)Nc1ccc(F)c([S@@+](C)[O-])c1 [Example 56A],
< 5,< 5,Cc1nc(F)ccc1Oc1cc(C2CC2)c(C(F)(F)F)cc1C(=O)Nc1cccc([S@@](C)(=N)=O)c1 [Example 59A],
5 to 50,5 to 50,Cc1nc(F)ccc1Oc1cc(C(F)(F)F)c(Cl)cc1C(=O)Nc1ccc(C(N)=O)nc1 [Example 64A],
< 5,< 5,Cc1nc(F)ccc1Oc1cc(C(F)(F)F)c(Cl)c(C)c1C(=O)Nc1cccc([S@@](C)(=N)=O)c1 [Example 66A],
< 5,< 5,Cc1nc(F)ccc1Oc1cc(C2CC2)c(C(F)(F)F)cc1C(=O)Nc1cccc([S@](C)(=N)=O)c1 [Example 67A],
5 to 50,< 5,Cc1nc(F)ccc1Oc1cc(C(F)(F)F)c(Cl)cc1C(=O)Nc1ccc(C(N)=O)cc1 [Example 68A],
< 5,< 5,Cc1nc(F)ccc1Oc1cc(C(F)(F)F)c(Cl)cc1C(=O)Nc1ccc(F)c([S+](C)[O-])c1 (stereo not drawn) [Example 69A],
< 5,< 5,Cc1nc(F)ccc1Oc1cc(C(F)(F)F)c(Cl)cc1C(=O)Nc1ccc(F)c([S@@](C)(=N)=O)c1 [Example 70A],
< 5,< 5,Cc1nc(F)ccc1Oc1cc(C(F)(F)F)c(Cl)cc1C(=O)Nc1ccc(F)c([S@](C)(=N)=O)c1 [Example 71A],
< 5,< 5,Cc1nc(F)ccc1Oc1cc(C(F)(F)F)c(Cl)cc1C(=O)Nc1ccnc(C(N)=O)c1 [Example 72A],
< 5,< 5,Cc1nc(F)ccc1Oc1cc(C(F)(F)F)c(Cl)cc1C(=O)Nc1cccc(C(N)=O)c1 [Example 73A],

# The next lines start with the molecule.
SMILES,IC50 [1] [nM],IC50 [2] [nM],also measured
Cc1nc(F)ccc1Oc1cc(C(F)(F)F)cc(F)c1C(=O)Nc1ccnc([S@](C)(=N)=O)c1 [Example 40A],5 to 50,5 to 50,
"Cc1nc(F)ccc1Oc1ncc(C(F)(F)F)c(C)c1C(=O)Nc1cccc(S(C)(=N)=N)c1 [Example 40C, ((3-(2-((6-fluoro-2-methylpyridin-3-yl)oxy)-4-methyl-5-(trifluoromethyl)nicotinamido)phenyl)(methyl)-l6-sulfanediylidene)diamine]",,,IC50 [3]: < 5 nM; IC50 [4]: < 5 nM
Cc1nc(F)ccc1Oc1cc(C(F)(F)F)c(Cl)c(F)c1C(=O)Nc1ccnc([S@](C)(=N)=O)c1 [Example 41A],< 5,< 5,
Cc1nc(F)ccc1Oc1cc(C2CC2)c(C(F)(F)F)c(C)c1C(=O)Nc1cccc([S@@](C)(=N)=O)c1 [Example 42A],< 5,< 5,
"Cc1nc(F)ccc1Oc1ncc(C(F)(F)F)c(C)c1C(=O)Nc1cccc([S@@](C)(=O)=NCCN)c1 [Example 43C, (R)—N-(3-(N-(2-aminoethyl)-S-methylsulfonimidoyl)phenyl)-2-((6-fluoro-2-methylpyridin-3-yl)oxy)-4-methyl-5-(trifluoromethyl)nicotinamide]",,,IC50 [3]: < 5 nM; IC50 [4]: < 5 nM
C[S@@](=N)(=O)c1cc(NC(=O)c2c(F)cc(C(F)(F)F)cc2Oc2ccc(OC(F)(F)F)cc2)ccn1 [Example 44A],< 5,< 5,
"Cc1nc(F)ccc1Oc1cnc(C(F)(F)F)c(C)c1C(=O)Nc1cccc([S@](C)(=N)=O)c1 [Example 44C, (R)-5-((6-fluoro-2-methylpyridin-3-yl)oxy)-3-methyl-N-(3-(S-methylsulfonimidoyl)phenyl)-2-(trifluoromethyl)isonicotinamide]",,,IC50 [5]: 5 to 50 nM; IC50 [6]: 5 to 50 nM
C[S@@](=N)(=O)c1cc(NC(=O)c2c(Oc3ccc(OC(F)(F)F)cc3)cc(C(F)(F)F)c(Cl)c2F)ccn1 [Example 45A],< 5,< 5,
"Cc1nc(F)ccc1Oc1cnc(C(F)(F)F)c(Cl)c1C(=O)Nc1cccc([S@](C)(=N)=O)c1 [Example 45C, (R)-3-chloro-5-((6-fluoro-2-methylpyridin-3-yl)oxy)-N-(3-(S-methylsulfonimidoyl)phenyl)-2-(trifluoromethyl)isonicotinamide]",,,IC50 [5]: < 5 nM; IC50 [6]: < 5 nM
C[S@@](=N)(=O)c1cccc(NC(=O)c2c(Oc3ccc(OC(F)(F)F)cc3)cc(C(F)(F)F)c(Cl)c2Oc2ccc(OC(F)(F)F)cc2)c1 [Example 46A],100 to 200,100 to 200,
Cc1nc(F)ccc1Oc1cc(C(F)(F)F)c(Cl)c(F)c1C(=O)NC12CC(C(N)=O)(C1)C2 [Example 47A],> 200,> 200,
"Cc1nc(F)ccc1Oc1ncc(C(F)F)c(C)c1C(=O)Nc1ccnc(S(C)(=N)=O)c1 (stereo not drawn) [Example 48C, 5-(difluoromethyl)-2-((6-fluoro-2-methylpyridin-3-yl)oxy)-4-methyl-N-(2-(S-methylsulfonimidoyl)pyridin-4-yl)nicotinamide]",,,IC50 [3]: > 200 nM; IC50 [4]: > 200 nM
C[S@@](=N)(=O)c1cccc(NC(=O)c2c(Oc3ccc(OC(F)(F)F)cc3)cc(C(F)(F)F)c(Cl)c2F)c1 [Example 50A],< 5,< 5,
Cc1nc(F)ccc1Oc1cc(C2CC2)c(C(F)(F)F)cc1C(=O)Nc1ccc(F)c([S@@](C)(=N)=O)c1 [Example 51A],< 5,< 5,
Cc1nc(F)ccc1Oc1cc(C(F)(F)F)c(Cl)c(C)c1C(=O)NC12CC(C(N)=O)(C1)C2 [Example 53A],> 200,> 200,
Cc1nc(F)ccc1Oc1cc(C2CC2)c(C(F)(F)F)cc1C(=O)Nc1ccnc([S@@](C)(=N)=O)c1 [Example 57A],< 5,5 to 50,
Cc1nc(F)ccc1Oc1cc(C2CC2)c(C(F)(F)F)cc1C(=O)Nc1ccnc([S@](C)(=N)=O)c1 [Example 58A],< 5,< 5,

SMILES,IC50 [1] [nM],IC50 [2] [nM],also measured
Cc1nc(F)ccc1Oc1cc(C(F)(F)F)c(Cl)c(C)c1C(=O)Nc1ccnc([S@@](C)(=N)=O)c1 [Example 60A],< 5,< 5,
Cc1nc(F)ccc1Oc1cc(C(F)(F)F)c(Cl)c(C)c1C(=O)Nc1cccc(C(N)=O)c1 [Example 61A],< 5,< 5,
Cc1nc(F)ccc1Oc1cc(C(F)(F)F)c(Cl)c(C)c1C(=O)Nc1ccnc(C(N)=O)c1 [Example 62A],< 5,< 5,
Cc1nc(F)ccc1Oc1cc(C(F)(F)F)c(Cl)cc1C(=O)NC12CC(C(N)=O)(C1)C2 [Example 63A],> 200,> 200,
Cc1nc(F)ccc1Oc1cc(C(F)(F)F)c(Cl)c(C)c1C(=O)Nc1ccnc([S@](C)(=N)=O)c1 [Example 65A],< 5,< 5,
Cc1nc(F)ccc1Oc1ncc(C(F)(F)F)c(C)c1C(=O)Nc1cccc([S@@](C)(=O)=NCC(C)(C)N)c1 [Example 90C],,,IC50 [3]: < 5 nM; IC50 [4]: < 5 nM
Cc1nc(F)ccc1Oc1ncc(C(F)(F)F)c(C)c1C(=O)Nc1cccc([S@@](C)(=O)=NCCN(C)C)c1 [Example 91C],,,IC50 [3]: < 5 nM; IC50 [4]: < 5 nM
Cc1nc(F)ccc1Oc1ncc(C(F)(F)F)c(C)c1C(=O)Nc1cccc(S(C)(=O)=NCC2(N)CC2)c1 (stereo not drawn) [Example 92C],,,IC50 [5]: < 5 nM; IC50 [6]: < 5 nM
Cc1nc(F)ccc1Oc1nc2ccccc2cc1C(=O)Nc1ccnc([S@](C)(=N)=O)c1 [Example 93C],,,IC50 [3]: 100 to 200 nM; IC50 [4]: 100 to 200 nM
Cc1nc(F)ccc1Oc1nc(C(F)(F)F)c(Cl)c(C)c1C(=O)Nc1ccc(F)c([S@@](C)(=N)=O)c1 [Example 94C],,,IC50 [3]: 5 to 50 nM; IC50 [4]: 5 to 50 nM
Cc1nc(F)ccc1Oc1nc(C(F)(F)F)c(Cl)c(C)c1C(=O)Nc1ccc(F)c([S@](C)(=N)=O)c1 [Example 95C],,,IC50 [3]: < 5 nM; IC50 [4]: < 5 nM
Cc1nc(F)ccc1Oc1nc(C(F)(F)F)c(Br)c(C)c1C(=O)Nc1cccc([S@@](C)(=O)=NCCN)c1 [Example 96C],,,IC50 [3]: < 5 nM; IC50 [4]: < 5 nM
Cc1nc(F)ccc1Oc1nc2ccccc2cc1C(=O)Nc1cccc([S@](C)(=N)=O)c1 [Example 97C],,,IC50 [3]: 50 to 100 nM; IC50 [4]: 50 to 100 nM
Cc1nc(F)ccc1Oc1ncc(C2CCC2)c(C)c1C(=O)Nc1ccnc([S@](C)(=N)=O)c1 [Example 98C],,,IC50 [3]: 5 to 50 nM; IC50 [4]: 5 to 50 nM
Cc1nc(F)ccc1Oc1ncc(C2CCC2)c(C)c1C(=O)Nc1cccc([S@](C)(=N)=O)c1 [Example 99C],,,IC50 [3]: 5 to 50 nM; IC50 [4]: 5 to 50 nM
Cc1nc(F)ccc1Oc1nc(C(F)(F)F)c(Cl)c(C)c1C(=O)Nc1ccnc([S@](C)(=N)=O)c1 [Example 100C],,,IC50 [3]: 5 to 50 nM; IC50 [4]: 5 to 50 nM
Cc1nc(F)ccc1Oc1ncc(C(F)(F)F)c(C)c1C(=O)Nc1ccc(F)c(S(C)(=O)=O)c1 [Example 101C],,,IC50 [5]: 5 to 50 nM; IC50 [6]: 5 to 50 nM
